Reference: patent publication US9434747B2, “Methods of treating diabetes” (Medivation Technologies, Inc., priority 2011, dated 2016)

What was measured:
[1] = molecular target: T1, human recombinant adrenergic α2B receptor (Homo sapiens, UniProt P18089); experiment: Radioligand binding assay, adrenergic α2B ([3H]Rauwolscine); conditions: compound at 0.1 μM; 2.5 nM [3H]Rauwolscine; CHO-K1 cells; read-out: Percentage inhibition of ligand binding, Adrenergic α2B
T1 construct: expressed in transfected cells; host or cells: Chinese hamster ovary (CHO) K1 cells
T1 sequence (P18089 1-450): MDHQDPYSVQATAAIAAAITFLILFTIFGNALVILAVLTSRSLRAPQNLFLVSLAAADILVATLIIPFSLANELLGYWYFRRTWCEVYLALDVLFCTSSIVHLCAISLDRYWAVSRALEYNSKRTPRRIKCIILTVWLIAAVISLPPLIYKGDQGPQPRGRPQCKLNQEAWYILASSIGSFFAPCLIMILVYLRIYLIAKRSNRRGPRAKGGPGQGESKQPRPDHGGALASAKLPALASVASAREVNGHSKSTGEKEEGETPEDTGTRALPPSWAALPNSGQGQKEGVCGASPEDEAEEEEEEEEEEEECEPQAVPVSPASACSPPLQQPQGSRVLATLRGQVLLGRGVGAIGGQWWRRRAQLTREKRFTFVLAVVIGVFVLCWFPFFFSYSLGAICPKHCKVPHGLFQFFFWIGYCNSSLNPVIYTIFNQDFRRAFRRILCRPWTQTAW
Experimental: To evaluate in radioligand binding assays the activity of compounds, human recombinant adrenergic α2B receptor expressed in Chinese hamster ovary (CHO) K1 cells (Uhlen, S. et al, Eur. J. Pharmacol. 343(1):93, 1998) in a modified Tris-HCl buffer (50 mM Tris-HCl, pH 7.4, 12.5 mM MgCl2, 1 mM EDTA, 0.2% BSA) was used. Compounds were incubated with 2.5 nM [^3H]Rauwolscine for 60 min at 25° C. Non-specific binding was estimated in the presence of 10 μM Prazosin. Receptor proteins were filtered and washed, the filters were then counted to determine [^3H]Rauwolscine specifically bound. Compounds were screened at 1 μM or lower, using 1% DMSO as vehicle. Compounds were tested in this biochemical assay and percent inhibition of specific binding was determined. Biochemical assay results are presented as the percent inhibition of specific binding in Tables B1A-B1D.

[2] = molecular target: T2, human recombinant adrenergic α2A receptor (Homo sapiens, UniProt P08913); experiment: Radioligand binding assay, adrenergic α2A ([3H]MK-912); conditions: compound at 0.1 μM; 1 nM [3H]MK-912; Sf9 cells; read-out: Percentage inhibition of ligand binding, Adrenergic α2A
T2 construct: expressed in transfected cells; host or cells: insect Sf9 cells
T2 sequence (P08913 1-465): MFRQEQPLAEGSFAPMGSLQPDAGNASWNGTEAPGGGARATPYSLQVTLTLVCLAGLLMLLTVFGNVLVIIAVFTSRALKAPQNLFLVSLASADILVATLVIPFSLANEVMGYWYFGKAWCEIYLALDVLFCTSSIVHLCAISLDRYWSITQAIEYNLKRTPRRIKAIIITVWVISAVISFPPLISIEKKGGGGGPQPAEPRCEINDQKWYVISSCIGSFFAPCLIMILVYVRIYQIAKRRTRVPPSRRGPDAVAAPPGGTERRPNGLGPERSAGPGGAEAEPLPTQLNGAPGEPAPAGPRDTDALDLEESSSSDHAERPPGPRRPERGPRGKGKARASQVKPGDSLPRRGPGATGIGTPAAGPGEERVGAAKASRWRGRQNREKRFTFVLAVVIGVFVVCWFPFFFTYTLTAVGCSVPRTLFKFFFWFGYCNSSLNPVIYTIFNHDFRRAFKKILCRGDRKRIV
Experimental: To evaluate in radioligand binding assays the activity of compounds, human recombinant adrenergic α2A receptor expressed in insect Sf9 cells (Uhlen, S. et al, J. Pharmacol. Exp. Ther. 271:1558, 1994) in a modified Tris-HCl buffer (50 mM Tris-HCl, pH 7.4, 12.5 mM MgCl2, 2 mM EDTA) was used. Compounds were incubated with 1 nM [^3H]MK-912 for 60 min at 25° C. MK912 is (2S-trans)-1,3,4,5′,6,6′,7,12b-octahydro-1′,3′-dimethyl-spiro[2H-benzofuro[2,3-a]quinolizine-2,4′(1′H)-pyrimidin]-2′(3′H)-one hydrochloride. Non-specific binding was estimated in the presence of 10 μM WB-4101 (2-(2,6-Dimethoxyphenoxyethyl)aminomethyl-1,4-benzodioxane hydrochloride). Receptor proteins were filtered and washed, the filters were then counted to determine [^3H]MK-912 specifically bound. Compounds were screened at 1 μM or lower, using 1% DMSO as vehicle. Compounds were tested in this biochemical assay and percent inhibition of specific binding was determined. Biochemical assay results are presented as the percent inhibition of specific binding in Tables B1A-B1D.

[3] = molecular target: T3, rat adrenergic α1B receptor (Rattus norvegicus, UniProt P15823); experiment: Radioligand binding assay, adrenergic α1B ([3H]Prazosin); conditions: compound at 0.1 μM; 0.25 nM [3H]Prazosin; Wistar rat liver; read-out: Percentage inhibition of ligand binding, Adrenergic α1B
T3 construct: rat adrenergic α1B receptor obtained from Wistar Rat liver; from tissue; host or cells: Wistar rat liver
T3 sequence (P15823 1-515): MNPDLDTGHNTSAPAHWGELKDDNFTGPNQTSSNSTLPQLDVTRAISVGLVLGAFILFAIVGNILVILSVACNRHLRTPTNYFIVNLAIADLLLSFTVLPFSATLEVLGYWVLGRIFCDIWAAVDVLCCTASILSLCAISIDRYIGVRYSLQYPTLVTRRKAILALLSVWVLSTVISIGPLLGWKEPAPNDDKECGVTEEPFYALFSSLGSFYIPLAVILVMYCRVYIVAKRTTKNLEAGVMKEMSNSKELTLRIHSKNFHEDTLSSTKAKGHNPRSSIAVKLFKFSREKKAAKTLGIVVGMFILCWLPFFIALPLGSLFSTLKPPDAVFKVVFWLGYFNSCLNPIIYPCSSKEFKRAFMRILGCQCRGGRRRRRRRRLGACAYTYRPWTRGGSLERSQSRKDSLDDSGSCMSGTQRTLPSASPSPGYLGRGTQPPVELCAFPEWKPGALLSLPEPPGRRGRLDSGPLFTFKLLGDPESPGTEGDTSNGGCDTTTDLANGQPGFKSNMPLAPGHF
Experimental: To evaluate in radioligand binding assays the activity of compounds, rat adrenergic α1B receptor obtained from Wistar Rat liver (Garcia-S'ainz, J. et al, Biochem. Biophys. Res. Commun. 186:760, 1992; Michel, A. et al, Br. J. Pharmacol. 98:883, 1989) in a modified Tris-HCl buffer (50 mM Tris-HCl buffer, pH 7.4, 0.5 mM EDTA) was used. Compounds were incubated with 0.25 nM [^3H]Prazosin for 60 min at 25° C. Non-specific binding was estimated in the presence of 10 μM phentolamine. Receptor proteins were filtered and washed, the filters were then counted to determine [^3H]Prazosin specifically bound. Compounds were screened at 1 μM or lower, using 1% DMSO as vehicle. Compounds were tested in this biochemical assay and percent inhibition of specific binding was determined. Biochemical assay results are presented as the percent inhibition of specific binding in Tables B1A-B1D.

[4] = molecular target: T4, human recombinant adrenergic α1D receptor (Homo sapiens, UniProt P25100); experiment: Radioligand binding assay, adrenergic α1D ([3H]Prazosin); conditions: compound at 0.1 μM; 0.6 nM [3H]Prazosin; HEK-293 cells; read-out: Percentage inhibition of ligand binding, Adrenergic α1D
T4 construct: expressed in transfected cells; host or cells: human embryonic kidney (HEK-293) cells
T4 sequence (P25100 1-572): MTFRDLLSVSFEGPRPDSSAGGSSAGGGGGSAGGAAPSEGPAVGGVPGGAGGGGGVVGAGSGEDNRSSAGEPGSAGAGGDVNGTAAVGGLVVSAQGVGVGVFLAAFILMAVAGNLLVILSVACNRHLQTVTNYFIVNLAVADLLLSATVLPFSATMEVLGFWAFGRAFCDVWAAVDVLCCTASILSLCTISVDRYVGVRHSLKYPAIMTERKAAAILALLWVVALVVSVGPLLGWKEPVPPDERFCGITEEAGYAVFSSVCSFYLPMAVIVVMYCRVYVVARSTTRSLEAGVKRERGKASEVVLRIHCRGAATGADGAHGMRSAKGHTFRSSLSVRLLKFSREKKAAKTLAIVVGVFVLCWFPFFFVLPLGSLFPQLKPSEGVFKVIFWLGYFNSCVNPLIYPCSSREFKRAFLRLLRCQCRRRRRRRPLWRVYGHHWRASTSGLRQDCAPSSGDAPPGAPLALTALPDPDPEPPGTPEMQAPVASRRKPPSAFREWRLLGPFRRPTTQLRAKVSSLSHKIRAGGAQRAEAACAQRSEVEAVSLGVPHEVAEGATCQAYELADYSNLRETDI
Experimental: To evaluate in radioligand binding assays the activity of compounds of the invention, human recombinant adrenergic α1D receptor expressed in human embryonic kidney (HEK-293) cells (Kenny, B. et al, Br. J. Pharmacol. 115(6):981, 1995) in a 50 mM Tris-HCl buffer, pH 7.4, was used. Compounds were incubated with 0.6 nM [3H]Prazosin for 60 min at 25° C. Non-specific binding was estimated in the presence of 10 μM phentolamine. Receptor proteins were filtered and washed, the filters were then counted to determine [3H]Prazosin specifically bound. Compounds were screened at 1 μM or lower, using 1% DMSO as vehicle. Biochemical assay results are presented as the percent inhibition of specific binding in Tables B1A-B1D.

Row | inhibition at 0.1 µM [1] [%] | inhibition at 0.1 µM [2] [%] | inhibition at 0.1 µM [3] [%] | inhibition at 0.1 µM [4] [%] | Structure (SMILES)
1 | 14 | – | – | – | Cc1cc2c3c(c1)c1c(n3CC2c2ccc(C)nc2)CCN(C)C1 (centres unmarked) [Compound B210]
2 | -9 | 10 | 2 | 4 | Cc1cc(-c2ccc(F)cc2)c2[nH]c3c(c2c1)CN(C)CC3 [Compound A7]
